Experiments:
BaF3 [1] = test: Cytotoxicity against mouse BaF3 cells harboring EGFR L858R/T790M/C797S mutant assessed as reduction in cell viability incubated for 96 hrs by CellTiter-Glo assay; type: functional, cell-based; details: BaF3, 96 h
BaF3 [2] = test: Cytotoxicity against mouse BaF3 cells harboring wild type EGFR assessed as reduction in cell viability incubated for 72 hrs by CellTiter-Glo assay; type: functional, cell-based; details: BaF3, 72 h
[3] = Inhibition of EGFR T790M/C797S double mutant (unknown origin); set-up: species or system Homo sapiens
[4] = target: Epidermal growth factor receptor (Homo sapiens, UniProt P00533); test: Inhibition of wild type EGFR (unknown origin) by ELISA analysis
[5] = target: T1, Epidermal growth factor receptor (Homo sapiens, UniProt P00533, C797S/L858R/T790M); test: Inhibition of EGFR L858R/T790M/C797S mutant (unknown origin) using TK-substrate preincubated with enzyme for 30 mins followed by substrate for 10 mins by HTRF assay
BaF3 [6] = test: Inhibition of EGFR phosphorylation in mouse BaF3 cells harboring EGFR L858R/T790M/C797S triple mutant at 10 uM by Western blotting analysis; type: cell-based
NIH3T3 = test: Antiproliferative activity against mouse NIH3T3 cells expressing EGFR Del19/T790M/C797S mutant assessed as reduction in cell proliferation incubated for 72 hrs by MTT assay; type: functional, cell-based; details: NIH3T3, 72 h
[7] = target: T1, Epidermal growth factor receptor; test: Inhibition of EGFR L858R/T790M/C797S triple mutant (unknown origin) expressed in Bac-to-Bac baculovirus expression system measured after 2 hrs by ELISA method
[8] = target: T1, Epidermal growth factor receptor; test: (§1) Inhibition of […]/T790M/C797S triple mutant (unknown origin) phosphorylation expressed in mouse BaF3 cells by HTRF assay; type: cell-based
A-431 [9] = test: Antiproliferative activity against human A-431 cells […] assessed as reduction in cell growth; type: functional, cell-based
A-431 [10] = test: Cytotoxicity against human A-431 cells expressing wild type EGFR assessed as reduction in cell viability incubated for 96 hrs by CellTiter-Glo assay; type: functional, cell-based; details: A-431, 96 h
BaF3 [11] = test: Inhibition of cell proliferation of mouse BaF3 cells expressing EGFR Del19/T790M/C797S mutant (unknown origin); type: functional, cell-based
cells = details: Mus musculus, Ba/F3 EGFR-T790M/C797S/L858R
BaF3 [12] = test: Cytotoxicity against mouse BaF3 cells expressing EGFR L858R mutant assessed as reduction in cell viability; type: functional, cell-based
[13] = Oral bioavailability in CD-1 mouse at 3 mg/kg measured after 24 hrs by LC-MS/MS analysis; type: ADME, organism-based; details: in vivo
BaF3 [14] = test: Cytotoxicity against mouse BaF3 cells harboring EGFR-Del19/T790M/C797S mutant assessed as cell growth inhibition measured after 96 hrs by CellTiter-Glo luminescent assay; type: functional, cell-based; details: BaF3, 96 h
BaF3 [15] = test: Antiproliferative activity against mouse BaF3 cells harboring wild type EGFR assessed as reduction in cell growth; type: functional, cell-based
[16] = target: Epidermal growth factor receptor (Homo sapiens, UniProt P00533, T790M/C797S/L858R); test: as §1; type: cell-based; details: baf3
PC-9 [17] = test: Antiproliferative activity against human PC-9 cells expressing EGFR Del19 mutant assessed as inhibition of cell growth measured after 72 hrs by MTT assay; type: functional, cell-based; details: PC-9, 72 h
BaF3 [18] = test: Cytotoxicity against mouse BaF3 cells harboring EGFR-Del19/T790M/C797S mutant assessed as cell growth inhibition measured after 72 hrs by CellTiter-Glo luminescent assay; type: functional, cell-based; details: BaF3, 72 h
[19] = target: T1, Epidermal growth factor receptor; test: Inhibition of EGFR L858R/T790M/C797S triple mutant (unknown origin)
PC-9 [20] = test: Antitumor activity in OR-resistant human PC-9 cells xenografted in […] assessed as tumor growth inhibition at 30 mg/kg, po administered once daily for 14 days relative to control; type: functional; details: PC-9, 336 h, time 14 day, read-out: TGI
BaF3 [21] = test: Antiproliferative activity against mouse BaF3 cells harboring EGFR L858R/T790M/C797S triple mutant after 72 hrs by resazurin dye-based fluorescence assay; type: functional, cell-based; details: BaF3, 72 h
PC-9 [22] = test: Antiproliferative activity against human PC-9 cells assessed as inhibition of cell growth incubated for 72 hrs by MTT assay; type: functional, cell-based; details: PC-9, 72 h
[23] = Inhibition of EGFR-C797S/T790M/del19 mutant in mouse BaF3 cells assessed as reduction in EGFR phosphorylation incubated for 6 hrs by Western blotting analysis; type: cell-based; details: BaF3, 6 h
PC-9 [24] = test: Antitumor activity in OR-resistant human PC-9 cells xenografted in […] assessed as tumor growth inhibition at 60 mg/kg, po administered once daily for 14 days relative to control; type: functional; details: PC-9, 336 h, time 14 day, read-out: TGI

T1 sequence (P00533 25-1210 T790M/C797S/L858R limits assumed): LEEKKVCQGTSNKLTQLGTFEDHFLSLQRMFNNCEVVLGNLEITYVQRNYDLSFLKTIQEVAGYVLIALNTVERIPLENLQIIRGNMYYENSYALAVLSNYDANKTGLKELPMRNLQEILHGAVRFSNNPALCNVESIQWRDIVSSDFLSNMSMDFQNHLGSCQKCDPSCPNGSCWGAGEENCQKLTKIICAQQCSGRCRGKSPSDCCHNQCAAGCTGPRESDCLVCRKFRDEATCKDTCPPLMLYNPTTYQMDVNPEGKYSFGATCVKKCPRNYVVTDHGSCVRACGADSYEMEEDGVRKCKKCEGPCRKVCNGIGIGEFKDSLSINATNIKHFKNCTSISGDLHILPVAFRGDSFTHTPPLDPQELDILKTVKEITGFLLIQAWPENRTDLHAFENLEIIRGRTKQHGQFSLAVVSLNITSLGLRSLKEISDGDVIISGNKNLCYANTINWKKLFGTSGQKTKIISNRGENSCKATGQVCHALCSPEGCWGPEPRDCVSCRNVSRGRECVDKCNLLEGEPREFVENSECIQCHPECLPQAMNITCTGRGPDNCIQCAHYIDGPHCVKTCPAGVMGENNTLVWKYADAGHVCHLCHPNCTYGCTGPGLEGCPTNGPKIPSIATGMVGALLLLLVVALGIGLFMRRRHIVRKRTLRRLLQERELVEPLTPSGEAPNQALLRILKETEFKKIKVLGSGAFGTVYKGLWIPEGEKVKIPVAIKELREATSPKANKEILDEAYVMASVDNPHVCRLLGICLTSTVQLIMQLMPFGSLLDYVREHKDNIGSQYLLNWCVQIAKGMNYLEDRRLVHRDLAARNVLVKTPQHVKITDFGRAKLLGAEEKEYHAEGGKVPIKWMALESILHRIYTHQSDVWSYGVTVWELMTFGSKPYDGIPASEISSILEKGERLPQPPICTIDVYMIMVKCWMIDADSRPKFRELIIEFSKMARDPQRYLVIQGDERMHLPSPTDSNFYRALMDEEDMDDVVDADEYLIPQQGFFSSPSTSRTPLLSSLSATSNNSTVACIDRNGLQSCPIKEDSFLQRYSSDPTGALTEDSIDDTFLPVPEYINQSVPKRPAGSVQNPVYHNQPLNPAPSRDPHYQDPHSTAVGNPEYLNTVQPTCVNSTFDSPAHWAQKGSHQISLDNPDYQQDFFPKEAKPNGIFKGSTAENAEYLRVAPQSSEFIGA
Sequence of Epidermal growth factor receptor (Homo sapiens, UniProt P00533) (P00533 whole entry): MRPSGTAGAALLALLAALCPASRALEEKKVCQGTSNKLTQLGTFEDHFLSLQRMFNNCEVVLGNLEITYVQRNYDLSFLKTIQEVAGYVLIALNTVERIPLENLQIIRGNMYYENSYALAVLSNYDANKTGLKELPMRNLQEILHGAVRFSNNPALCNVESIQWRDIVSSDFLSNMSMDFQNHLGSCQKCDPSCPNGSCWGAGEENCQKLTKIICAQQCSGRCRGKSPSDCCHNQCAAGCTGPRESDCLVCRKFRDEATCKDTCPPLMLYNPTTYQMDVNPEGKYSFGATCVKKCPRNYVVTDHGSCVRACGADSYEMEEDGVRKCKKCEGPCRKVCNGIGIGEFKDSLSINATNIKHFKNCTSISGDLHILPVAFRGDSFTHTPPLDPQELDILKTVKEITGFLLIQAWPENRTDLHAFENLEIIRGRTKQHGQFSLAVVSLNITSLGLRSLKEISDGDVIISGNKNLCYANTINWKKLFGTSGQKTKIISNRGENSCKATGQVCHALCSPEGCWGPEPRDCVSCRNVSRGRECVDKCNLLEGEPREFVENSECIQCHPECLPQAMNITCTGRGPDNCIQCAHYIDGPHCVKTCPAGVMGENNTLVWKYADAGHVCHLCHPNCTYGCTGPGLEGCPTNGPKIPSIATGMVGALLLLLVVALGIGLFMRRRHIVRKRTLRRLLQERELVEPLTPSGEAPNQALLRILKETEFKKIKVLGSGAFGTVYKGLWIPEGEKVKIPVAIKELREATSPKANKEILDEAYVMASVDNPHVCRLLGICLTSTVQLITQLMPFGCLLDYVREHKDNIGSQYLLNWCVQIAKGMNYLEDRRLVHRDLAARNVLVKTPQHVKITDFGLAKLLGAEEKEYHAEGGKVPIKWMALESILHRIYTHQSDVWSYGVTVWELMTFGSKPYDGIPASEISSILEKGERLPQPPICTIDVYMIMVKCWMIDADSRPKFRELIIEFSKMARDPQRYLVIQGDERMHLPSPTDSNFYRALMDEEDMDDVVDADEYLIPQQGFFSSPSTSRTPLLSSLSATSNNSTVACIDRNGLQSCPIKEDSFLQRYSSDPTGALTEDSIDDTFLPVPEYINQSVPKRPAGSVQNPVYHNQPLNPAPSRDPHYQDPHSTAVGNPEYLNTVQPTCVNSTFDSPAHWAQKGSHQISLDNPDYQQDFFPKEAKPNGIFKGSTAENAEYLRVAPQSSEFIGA
Sequence of Epidermal growth factor receptor (Homo sapiens, UniProt P00533, T790M/C797S/L858R) (P00533 25-1210 T790M/C797S/L858R limits assumed): as the sequence (P00533 25-1210 T790M/C797S/L858R limits assumed) above

Structure (SMILES): O=C(Nc1nccs1)C(c1cc(F)ccc1O)N1Cc2ccccc2C1=O (configuration not stated)
- IC50 (BaF3 [1]): > 10 µM
- IC50 (BaF3 [2]): > 10 µM

Structure (SMILES): Cc1cc(N2Cc3ccccc3C2)nc2ccc(Cl)cc12
- IC50 [3]: 0.0108 µM
- IC50 [4]: 0.00759 µM
- IC50 [5]: 0.13 µM

Structure (SMILES): Oc1ccccc1-c1nc(NCC2CCOC2)c2ccccc2n1 (configuration not stated)
- inhibition (BaF3 [6]): 91%

Structure (SMILES): CC(C)n1c2cc(Nc3ccnc(-c4cnn(S(=O)(=O)C5CC5)c4)n3)ncc2c2c(OCC(F)(F)F)cc(N3CCN(C)CC3)cc21
- IC50 (NIH3T3): 0.02 µM
- IC50 [7]: 0.00028 µM
- IC50 [8]: 0.00025 µM
- IC50 (A-431 [9]): 1.2 µM
- IC50 (A-431 [10]): 1.2 µM

Structure (SMILES): CCC(=O)N[C@H]1CC[C@@H](N2C(=O)N(c3ccccc3Cl)Cc3cnc(Nc4ccc(N5CCN(C)CC5)c(C)c4)nc32)CC1
- IC50 (BaF3 [11]): 0.316 µM
- IC50 (BaF3 [1]): 0.29 µM

Structure (SMILES): N#Cc1ccc(O)c(-c2nc(NCc3cccnc3)c3ccccc3n2)c1
- inhibition (BaF3 [6]): 94.2%

Structure (SMILES): COc1cc(N2CCN(CCCCCCCC(=O)N[C@@H](C(=O)N3C[C@@H](O)C[C@@H]3C(=O)N[C@H](C)c3ccc(-c4nc(C)cs4)cc3)C(C)(C)C)CC2)ccc1Nc1ncc(Cl)c(Nc2ccccc2P(C)(C)=O)n1
- IC50 (cells): 0.02 µM

Structure (SMILES): CN1CCN(c2ccc(Nc3ncc4cc(CNc5ccccc5)n(C5CCCC5)c4n3)cc2)CC1
- IC50 [8]: 0.01 µM

Structure (SMILES): COc1cc(N2CCN(C(C)=O)CC2)ccc1Nc1ncc(Cl)c(Nc2ccc(NCc3ccc(S(=O)(=O)F)cc3)cc2)n1
- IC50 (BaF3 [11]): > 10 µM
- IC50 (BaF3 [12]): 0.11 µM

Structure (SMILES): COc1cc(N2CCC(N3CCN(CCC#Cc4cccc5c4CN(C4CCC(=O)NC4=O)C5=O)CC3)CC2)ccc1Nc1ncc(Cl)c(Nc2ccccc2P(C)(C)=O)n1 (configuration not stated)
- bioavailability [13]: 62.3%

Structure (SMILES): c1ccc(-c2cc(N3Cc4ccccc4C3)nc3ccccc23)cc1
- IC50 [3]: 0.0112 µM
- IC50 [4]: 0.0079 µM
- IC50 [5]: 0.124 µM

Structure (SMILES): COc1ccc(-c2c3c4cc(OCCCN(C)C)c(OCCCN(C)C)cc4oc(=O)c3n3ccc4cc(O)c(OC)cc4c23)cc1O
- IC50 (BaF3 [14]): 0.127 µM
- IC50 (BaF3 [15]): 0.52 µM

Structure (SMILES): CNC(=O)c1cnc(Nc2ccnc(N3CCC(O)CC3)n2)cc1NC(C)C
- IC50 [16]: 0.266 µM

Structure (SMILES): CN1CCN(c2ccc(Nc3ncc(Cl)c(Nc4ccccc4P(C)(C)=O)n3)c(Br)c2)CC1
- IC50 (PC-9 [17]): 0.23 µM
- IC50 (BaF3 [18]): 0.09 µM
- IC50 [19]: 0.0031 µM
- inhibition in vivo at 30 mg/kg (PC-9 [20]): 83.5%
- IC50 (BaF3 [21]): 0.12 µM
- IC50 (PC-9 [22]): 0.18 µM
- IC50 [23]: 0.0024 µM
- inhibition in vivo at 60 mg/kg (PC-9 [24]): 137%

Structure (SMILES): Cc1cc(N2CCN(C(c3ccccc3)c3ccccc3)CC2)nc2ccc(Cl)cc12
- IC50 [3]: 0.0105 µM
- IC50 [4]: 0.00792 µM
- IC50 [5]: 0.136 µM

Structure (SMILES): CO[C@@H]1CCN(c2nccc(Nc3cc4c(C(C)C)ccc(N5C[C@H](CS(C)(=O)=O)[C@H]5C)c4cn3)n2)C[C@@H]1F [TIGOZERTINIB]
- IC50 (BaF3 [11]): 0.0032 µM
- IC50 (BaF3 [1]): 0.004 µM

Structure (SMILES): C=CC(=O)Nc1cc(Nc2nccc(-c3cn(C)c4ccccc34)n2)c(OC)cc1N(C)CCN(C)C [OSIMERTINIB]
- IC50 (PC-9 [17]): 0.08 µM
- IC50 (BaF3 [18]): 3.38 µM
- IC50 (BaF3 [21]): 4.14 µM
- IC50 (PC-9 [22]): 4.85 µM
